Results from publication PMC2758911 (Clinical cancer research : an official journal of the …, 2009).

Columns and labels:
[1] = tested on: relapsed/refractory multiple myeloma patients
QT interval = conditions: cited from earlier work
[2] = tested on: relapsed and refractory myeloma patients; conditions: cited from earlier work
[3] = Vorinostat serum pharmacokinetics, day 4 of cycle 1; format: in vivo, human; conditions: for Tmax / half-life / AUC(0-inf) / Cmax: human, po
[4] = single patient with grade 3 event, baseline QTc 394 msec
[5] = vorinostat 400 mg daily, ECG 3 hours after vorinostat

Question: For `CC(C)C[C@H](NC(=O)[C@H](Cc1ccccc1)NC(=O)c1cnccn1)B(O)O` [bortezomib], which “Bortezomib dose at the MTD of the combination” value ([1]; days 1, 4, 8, 11 of 21-day cycle, with vorinostat 400 mg daily for 8 days) is on record?
Answer: 1.3 mg/m2

Question: What about the “Patients in whom bortezomib was decreased from 1.3 mg/m2 to 1 mg/m2” value ([1]; human, in vivo) of the same compound?
Answer: 8 patients

Question: With `Cc1[nH]c2ccccc2c1CCNCc1ccc(/C=C/C(=O)NO)cc1` [panobinostat] as the compound, how does the “QTc prolongation in phase I and/or II studies” value (QT interval) read?
Answer: have shown evidence of QTc prolongation

Question: For `O=C(CCCCCCC(=O)Nc1ccccc1)NO` [vorinostat, suberoylanilide hydroxamic acid], which “Tolerability and disease stabilization” value ([2]; heavily pre-treated population) is on record?
Answer: favorable tolerability and evidence of disease stabilization

Question: And the Single-agent activity ([2]; relapsed and refractory myeloma patients)?
Answer: failed to establish significant single-agent activity

Question: And the “Patients who required a decrease in vorinostat dose for grade 3 diarrhea” value ([1]; in vivo)?
Answer: 3 patients

Question: And the “Maximum tolerated dose (MTD) of vorinostat” value ([1]; oral once daily for 8 days (days 4–11) every 21 days, with bortezomib 1.3 mg/m2 days 1, 4, 8, 11)?
Answer: 400 mg

Question: What about the cQT after vorinostat [1, 4] of the same compound?
Answer: 633 ms

Question: What about the “cQT at 24 hours” value [1, 4] of the same compound?
Answer: 389 ms

Question: What about the “Prolongation of QTc grade 1, patients” value [1, 5] of the same compound?
Answer: 7

Question: What about the “Prolongation of QTc grade 2, patients” value [1, 5] of the same compound?
Answer: 2

Question: What about the “Cmax at 400 mg versus 500 mg” value ([3]; Student t-test, p=0.35) of the same compound?
Answer: not statistically different

Question: What about the “Dose proportionality of vorinostat pharmacokinetics (AUC)” value ([3]; doses 100–500 mg) of the same compound?
Answer: the increase was greater than proportional

Question: And the “Serum Cmax versus dose” value ([3]; doses 100–500 mg)?
Answer: reached a plateau above 400 mg

Question: And the “Dose proportionality of vorinostat pharmacokinetics (AUC)” value ([3]; doses 100–500 mg, listed as Vorinostat)?
Answer: non-linear

Question: And the Tmax ([3]; serum)?
Answer: 0.5 to 6 h

Question: And the half-life ([3]; serum)?
Answer: 0.8 to 7.6 h

Question: And the AUC(0-inf) ([3]; serum, 100 mg)?
Answer: 760 µM·h

Question: And the Cmax ([3]; serum, 100 mg)?
Answer: 310 µM

Question: What about the Tmax ([3]; serum, 100 mg) of the same compound?
Answer: 1.3 h

Question: And the half-life ([3]; serum, 100 mg)?
Answer: 1.3 h

Question: And the AUC(0-inf) ([3]; serum, 200 mg)?
Answer: 2030 µM·h

Question: What about the Cmax ([3]; serum, 200 mg) of the same compound?
Answer: 650 µM

Question: What about the Tmax ([3]; serum, 200 mg) of the same compound?
Answer: 1.3 h

Question: And the AUC(0-inf) ([3]; serum, 400 mg)?
Answer: 5130 µM·h

Question: And the Cmax ([3]; serum, 400 mg)?
Answer: 1420 µM

Question: And the AUC(0-inf) ([3]; serum, 500 mg)?
Answer: 8100 µM·h

Question: What about the Cmax ([3]; serum, 500 mg) of the same compound?
Answer: 1330 µM

Question: What about the Tmax ([3]; serum, 500 mg) of the same compound?
Answer: 3.8 h

Question: What about the half-life ([3]; serum, 500 mg) of the same compound?
Answer: 4.4 h

Question: What about the “Slope of Cl/F (L/min) versus dose (mg)” value ([3]; linear regression, p=0.001, CL/F decreased with increasing dose) of the same compound?
Answer: −0.014

Question: And the “t1/2, mean” value ([3]; vorinostat 200 mg BID oral (n=3), serum, day 4 cycle 1, with bortezomib)?
Answer: 2.4 h

Question: What about the “QTc prolongation in phase I and/or II studies” value (QT interval) of the same compound?
Answer: have shown evidence of QTc prolongation
